ChEMBL document CHEMBL1800012, “Optimisation of a novel series of selective CNS penetrant CB(2) agonists” (Bioorg Med Chem Lett, 2011)

Legend:
[1] = target: T1, Cannabinoid receptor 2 (Homo sapiens, UniProt P34972); experiment: Agonist activity at human recombinant CB2 receptor expressed in CHO cells assessed as inhibition forskolin-induced cAMP release; type: functional, cell-based
[2] = Half life in rat at 1 mg/kg, iv; type: ADME, organism-based; set-up: dose 1 mg/kg, route intravenous; details: in vivo
[3] = Volume of distribution in rat at 1 mg/kg, iv; type: ADME, organism-based; set-up: dose 1 mg/kg, route intravenous; details: in vivo
[4] = Intrinsic clearance in rat liver microsomes; type: ADME, Microsome
[5] = Clearance in rat at 1 mg/kg, iv; type: ADME, organism-based; set-up: dose 1 mg/kg, route intravenous; details: in vivo
[6] = Ratio of unbound drug level in brain to plasma in rat; type: ADME, organism-based; details: brain and plasma, read-out: BPR
[7] = Intrinsic clearance in human liver microsomes; type: ADME, Microsome
[8] = target: T2, Cannabinoid receptor 1 (Homo sapiens, UniProt P21554); experiment: Binding affinity at human CB1 receptor
T2 sequence (P21554 whole entry): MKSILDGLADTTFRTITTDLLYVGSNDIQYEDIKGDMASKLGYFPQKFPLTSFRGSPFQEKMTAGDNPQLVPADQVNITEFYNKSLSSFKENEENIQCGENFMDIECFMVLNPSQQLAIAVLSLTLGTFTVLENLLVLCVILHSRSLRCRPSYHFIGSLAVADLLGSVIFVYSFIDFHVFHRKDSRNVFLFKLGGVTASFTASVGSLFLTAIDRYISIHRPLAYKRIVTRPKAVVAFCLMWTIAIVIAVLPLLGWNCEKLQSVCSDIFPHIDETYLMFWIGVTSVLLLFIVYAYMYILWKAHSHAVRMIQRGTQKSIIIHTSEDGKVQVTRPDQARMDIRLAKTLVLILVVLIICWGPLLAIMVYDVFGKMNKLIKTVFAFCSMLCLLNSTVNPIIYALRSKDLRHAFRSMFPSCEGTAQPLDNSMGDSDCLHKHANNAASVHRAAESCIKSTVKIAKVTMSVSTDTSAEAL

[9] = target: T2, Cannabinoid receptor 1; experiment: Agonist activity at human CB1 receptor by functional assay
[10] = Oral bioavailability in rat; type: ADME, organism-based; details: in vivo
[11] = organism: Rattus norvegicus; experiment: Ratio of unbound drug level in brain to plasma in rat relative to control; type: ADME, organism-based; details: in vivo
[12] = target: T1, Cannabinoid receptor 2; experiment: Agonist activity at human recombinant CB2 receptor expressed in CHO cells assessed as inhibition forskolin-induced cAMP release relative to control; type: functional, cell-based

T1 sequence (P34972 whole entry): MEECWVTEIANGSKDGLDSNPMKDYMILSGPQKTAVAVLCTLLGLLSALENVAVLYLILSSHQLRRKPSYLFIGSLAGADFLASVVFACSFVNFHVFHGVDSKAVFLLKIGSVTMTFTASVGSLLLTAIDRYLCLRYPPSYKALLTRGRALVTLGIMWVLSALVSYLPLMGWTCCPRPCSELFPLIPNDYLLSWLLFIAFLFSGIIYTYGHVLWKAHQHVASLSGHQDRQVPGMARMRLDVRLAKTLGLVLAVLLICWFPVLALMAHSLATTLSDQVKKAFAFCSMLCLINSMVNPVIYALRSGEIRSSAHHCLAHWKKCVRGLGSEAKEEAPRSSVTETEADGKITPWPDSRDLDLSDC

| SMILES | EC50 [1] [µM] | microsomal CLint [4] [µL/min/mg] | microsomal CLint [7] [µL/min/mg] | also measured |
| --- | --- | --- | --- | --- |
| CCS(=O)(=O)c1ccc2c(c1)nc(C(C)(C)C)n2C[C@@H]1CCCO1 | 0.011 | 17 | 12 | half-life [2]: 0.4 h; Vd [3]: 1 L/kg; clearance [5]: 1.63 L/h/kg; Kp uu [6]: 1 |
| CCS(=O)(=O)c1ccc2c(c1)nc(C(C)(C)C)n2C1CC1 | 0.106 | 8.5 | 8 |  |
| CCS(=O)(=O)c1ccc2c(c1)nc(CC(C)(C)C)n2CC1CC1 | 0.0029 | 38 | 8.4 |  |
| CCS(=O)(=O)c1ccc2c(c1)nc(C1(C)CCCC1)n2CC1CC1 | 0.0096 | 106 | 42 |  |
| CCS(=O)(=O)c1ccc2c(c1)nc(C(C)(C)C)n2CCOC(F)(F)F | 0.0053 | 19 | 7 |  |
| CCS(=O)(=O)c1ccc2c(c1)nc(C1CCCC1)n2CC1CC1 | 0.025 | 106 | 11 |  |
| CC(C)(C)Cc1nc2cc(S(=O)(=O)CC(C)(C)O)ccc2n1CC1CC1 | 0.0031 | 244 | < 7 |  |
| CCS(=O)(=O)c1ccc2c(c1)nc(C(C)(C)C)n2CC1CC1 | 0.0027 | 12 | 9 | half-life [2]: 1.9 h; Vd [3]: 3.2 L/kg; Ki [8]: > 20 µM; EC50 [9]: > 0.01 µM; clearance [5]: 1.2 L/h/kg; bioavailability [10]: 100%; BPR [11]: 30 |
| CCS(=O)(=O)c1ccc2c(c1)nc(C(C)(C)C)n2CCN(C)C | 0.039 | 8.5 | 8 |  |
| CN(C)CCn1c(CC(C)(C)C)nc2cc(S(=O)(=O)CC(C)(C)O)ccc21 | 0.012 | < 11.2 | < 7 | Ki [8]: > 19.4 µM; bioavailability [10]: 21%; BPR [11]: < 1% |
| CCCc1nc2cc(S(=O)(=O)CC)ccc2n1CC1CC1 | 0.199 | 34 | 43 |  |
| CC(C)(C)Cc1nc2cc(S(=O)(=O)C(C)(C)C)ccc2n1CC1CC1 | 0.00043 |  | 38 |  |
| CC(C)(C)Cc1nc2cc(S(=O)(=O)Cc3ccccc3)ccc2n1CC1CC1 | 0.0065 | 369 | 276 |  |
| CCS(=O)(=O)c1ccc2c(c1)nc(C1(C)CC1)n2CC1CC1 | 0.051 | 11 | 8 |  |
| CCS(=O)(=O)c1ccc2c(c1)nc(C(C)C)n2CC1CC1 | 0.132 |  |  |  |
| CC(C)(C)Cc1nc2cc(S(=O)(=O)C(C)(C)CO)ccc2n1CC1CC1 | 0.0012 | 54 | < 7 |  |
| CN(C)CCS(=O)(=O)c1ccc2c(c1)nc(CC(C)(C)C)n2CC1CC1 | 0.032 | 170 | 79 |  |
| CCS(=O)(=O)c1ccc2c(c1)nc(CCC(C)C)n2CC1CC1 | 0.067 |  |  | Emax [12]: 58% |
| CC(C)S(=O)(=O)c1ccc2c(c1)nc(CC(C)(C)C)n2CC1CC1 | 0.0032 | 144 | 23 | Ki [8]: > 10 µM |
| CCS(=O)(=O)c1ccc2c(c1)nc(C1CCC1)n2CC1CC1 | 0.082 | 33 | 8 |  |
| CCS(=O)(=O)c1ccc2c(c1)nc(CC1CC1)n2CC1CC1 | 0.425 |  |  | Emax [12]: 79% |
